Source: patent US20220073554A1, “LINCOSAMIDE ANTIBIOTICS AND USES THEREOF” (President and Fellows of Harvard College, priority 2017, published 2022)
≈ marks a conversion by molar mass, not a printed value. Like-named read-outs stand apart in the source and are kept apart here.

Experiments:
Assay type in all cases: cell-based
S. aureus MMX 3035 cErmA = test: MIC against S. aureus MMX 3035 cErmA; conditions: Staphylococcus aureus, MMX3035CERMA; S. aureus MMX 3035 cErmA; read-out: MIC
S. pneumoniae ATCC 49619 = test: MIC against S. pneumoniae ATCC 49619; conditions: Streptococcus pneumoniae, ATCC49619
[1] = tested on: S. pneumoniae MMX 3028 cErmB; test: MIC against S. pneumoniae MMX 3028 cErmB; conditions: Streptococcus pneumoniae, MMX3028CERMB; S. pneumoniae MMX 3028 cErmB; read-out: MIC
[2] = tested on: S. pneumoniae MMX 3031 cMefA; test: MIC against S. pneumoniae MMX 3031 cMefA; conditions: Streptococcus pneumoniae, MMX3031CMEFA
S. pyogenes ATCC 19615 = test: MIC against S. pyogenes ATCC 19615; conditions: Streptococcus pyogenes, ATCC19615; S. pyogenes ATCC 19615; read-out: MIC
E. faecalis ATCC 29212 = test: MIC against E. faecalis ATCC 29212; conditions: Enterococcus faecalis
[3] = tested on: E. faecalis MMX 847 Macrolide-Resistant; test: MIC against E. faecalis MMX 847 Macrolide-Resistant; conditions: Enterococcus faecalis; E. faecalis MMX 847 MacRes; read-out: MIC
E. coli ATCC 15922 = test: MIC against E. coli ATCC 15922; conditions: Escherichia coli, ATCC15922; E. coli ATCC 15922; read-out: MIC
E. coli MP-9 ΔTolC = test: MIC against E. coli MP-9 ΔTolC; conditions: Escherichia coli
S. aureus ATCC 29213 = test: MIC against S. aureus ATCC 29213; conditions: Staphylococcus aureus
[4] = tested on: S. aureus MP-513 clinical cErm; test: MIC against S. aureus MP-513 clinical cErm; conditions: Staphylococcus aureus
K. pneumoniae ATCC 10031 = test: MIC against K. pneumoniae ATCC 10031; conditions: Klebsiella pneumoniae, ATCC10031
P. aeruginosa ATCC 27853 = test: MIC against P. aeruginosa ATCC 27853; conditions: Pseudomonas aeruginosa, ATCC27853
E. coli ATCC 25922 = test: MIC against E. coli ATCC 25922; conditions: Escherichia coli, ATCC25922
[5] = tested on: E. coli MP-74 LptD mutant; test: MIC against E. coli MP-74 LptD mutant; conditions: Escherichia coli
S. aureus BAA 977 iErmA = test: MIC against S. aureus BAA 977 iErmA; conditions: Staphylococcus aureus, BAA977
[6] = tested on: S. aureus MP-549 msr(a) USA 300; test: MIC against S. aureus MP-549 msr(a) USA 300; conditions: Staphylococcus aureus, USA300, S. aureus MP-549 msr(a) USA 300
C. difficile BAA 1805 = test: MIC against C. difficile BAA 1805; conditions: Clostridioides difficile, BAA1805
H. influenzae ATCC 49247 = test: MIC against H. influenzae ATCC 49247; conditions: Haemophilus influenzae, ATCC49247
[7] = S. pneumoniae ATCC 49619, read-out: MIC

Row | Compound | MIC (S. pneumoniae ATCC 49619; [7]) [µg/mL] | MIC (S. pyogenes ATCC 19615) [µg/mL] | MIC (E. faecalis ATCC 29212; ATCC29212, read-out: MIC) [µg/mL] | MIC (E. coli ATCC 15922) [µg/mL] | MIC (E. coli MP-9 ΔTolC) [µg/mL] | MIC (S. aureus ATCC 29213; ATCC29213) [µg/mL] | MIC [4] [µg/mL] | MIC (K. pneumoniae ATCC 10031) [µg/mL] | MIC (P. aeruginosa ATCC 27853) [µg/mL] | MIC (E. coli ATCC 25922) [µg/mL] | MIC [5] [µg/mL] | MIC (S. aureus BAA 977 iErmA) [µg/mL] | MIC [6] [µg/mL] | further results
1 | CSC1O[C@H]([C@H](NC(=O)[C@H]2NC[C@@H]3C[C@@H](c4cc(F)cc(F)c4)CCO[C@H]32)[C@H](C)Cl)C(O)[C@@H](O)[C@H]1O (stereo partly drawn) [FSA-511080] | ≤ 0.06 | ≤ 0.06 | 0.5 (≈ 0.907 µM) | > 64 | 4 (≈ 7.26 µM) |  |  |  |  |  |  |  |  | MIC (S. aureus MMX 3035 cErmA): > 64 µg/mL; MIC [1]: 8 µg/mL (≈ 14.5 µM); MIC [2]: ≤ 0.06 µg/mL; MIC [3]: > 64 µg/mL
2 | CSC1O[C@H]([C@H](NC(=O)[C@H]2NC[C@@H]3CN(C(=N)N)CCO[C@H]32)[C@H](C)Cl)C(O)[C@@H](O)[C@H]1O (stereo partly drawn) [FSA-504057] |  |  |  |  | > 64 | > 64 | > 64 | > 64 | > 64 | > 64 |  |  |  | 
3 | C=CCOC(=O)N1CCO[C@@H]2[C@H](CN[C@@H]2C(=O)N[C@H]([C@H](C)Cl)[C@H]2OC(SC)[C@H](O)[C@H](O)C2O)C1 (stereo partly drawn) [FSA-503073] |  |  |  |  | > 64 |  | > 64 | > 64 | > 64 | > 64 |  |  |  | 
4 | COc1ccc(C2CCO[C@@H]3[C@H](CN[C@@H]3C(=O)N[C@H]([C@H](C)Cl)[C@H]3OC(SC)[C@H](O)[C@H](O)C3O)C2)cc1 (stereo partly drawn) [FSA-511045] | ≤ 0.06 | ≤ 0.06 | 1 (≈ 1.83 µM) | > 64 | 8 (≈ 14.7 µM) |  |  |  |  |  | 37 (≈ 67.9 µM) |  |  | MIC (S. aureus ATCC 29213; ATCC29213, S. aureus ATCC 29213, read-out: MIC): 0.3 µg/mL (≈ 0.55 µM)
5 | CNC1CCO[C@@H]2[C@H](CN[C@@H]2C(=O)N[C@H]([C@H](C)Cl)[C@H]2OC(SC)[C@H](O)[C@H](O)C2O)C1 (stereo partly drawn) [FSA-510065] |  |  |  |  | > 64 | > 64 |  | > 64 |  | > 64 | > 64 | > 64 | > 64 | MIC (S. pneumoniae ATCC 49619): > 64 µg/mL; MIC (E. faecalis ATCC 29212; ATCC29212): > 64 µg/mL; MIC (C. difficile BAA 1805): > 64 µg/mL; MIC (H. influenzae ATCC 49247): > 64 µg/mL
6 | CSC1O[C@H]([C@H](NC(=O)[C@H]2NC[C@@H]3C[C@H](c4ccc(C#N)cc4)CCO[C@H]32)[C@H](C)Cl)C(O)[C@@H](O)[C@H]1O (stereo partly drawn) [FSA-512081b] | ≤ 0.06 | ≤ 0.06 | 1 (≈ 1.85 µM) |  | 8 (≈ 14.8 µM) |  |  |  |  |  | 37 (≈ 68.5 µM) | 1 (≈ 1.85 µM) | 1 (≈ 1.85 µM) | 
7 | CSC1O[C@H]([C@H](NC(=O)[C@H]2NC[C@@H]3CN(Cc4ccc(N)nc4)CCO[C@H]32)[C@H](C)Cl)C(O)[C@@H](O)[C@H]1O (stereo partly drawn) [FSA-504050] |  |  |  |  | > 64 |  | > 64 | > 64 | > 64 | > 64 |  |  |  | 
8 | CSC1O[C@H]([C@H](NC(=O)[C@H]2NC[C@@H]3C[C@@H](c4cccc(F)c4)CCO[C@H]32)[C@H](C)Cl)C(O)[C@@H](O)[C@H]1O (stereo partly drawn) [FSA-511077] | ≤ 0.06 | ≤ 0.06 | 0.5 (≈ 0.938 µM) | > 64 | 4 (≈ 7.5 µM) |  |  |  |  |  |  |  | 0.23 (≈ 0.431 µM) | MIC (S. aureus MMX 3035 cErmA): > 64 µg/mL; MIC [1]: 8 µg/mL (≈ 15 µM); MIC [2]: ≤ 0.06 µg/mL; MIC (K. pneumoniae ATCC 10031; K. pneumoniae ATCC 10031, read-out: MIC): 8 µg/mL (≈ 15 µM)
9 | CSC1O[C@H]([C@H](NC(=O)[C@H]2NC[C@@H]3CC(N)CCO[C@H]32)[C@H](C)Cl)C(O)[C@@H](O)[C@H]1O (stereo partly drawn) [FSA-510012] |  |  |  |  | > 64 | > 64 |  | > 64 |  | > 64 | > 64 | > 64 | > 64 | MIC (S. pneumoniae ATCC 49619): > 64 µg/mL; MIC (E. faecalis ATCC 29212; ATCC29212): > 64 µg/mL; MIC (C. difficile BAA 1805): > 64 µg/mL; MIC (H. influenzae ATCC 49247): > 64 µg/mL
10 | CSC1O[C@H]([C@H](NC(=O)[C@H]2NC[C@@H]3CN(C)CCO[C@H]32)[C@H](C)Cl)C(O)[C@@H](O)[C@H]1O (stereo partly drawn) [FSA-503002] |  |  |  |  | > 64 |  | > 64 | > 64 | > 64 | > 64 |  | > 64 | > 64 | 
